Read-outs that look alike come from different tables or passages of the source. Some results are limits rather than exact numbers.

One data set has as its system MCF7 xenograft. The data set can be described thus: MCF7 xenograft model, palbociclib study. It counts as in vivo, NOD/SCID mice. The following applies: 28 days; Compound A 30 mg/kg PO QD, fulvestrant 200 mg/kg SC, palbociclib 60 mg/kg PO QD; FIG. 5. The procedure:
Female severe combined immunodeficient mouse in non-obese background (NOD/scid) mice were implanted with MCF7 cells and compound administration was initiated once the tumors reached 200 mm^3. Tumor volumes were evaluated twice per week for 28 days. […] Data are presented as mean±standard error of the mean (SEM)
(§1) Briefly, MCF7 cells were orthotopically implanted into the mammary fat pads of NOD/SCID female mice. 17β-estradiol 0.72 mg 90-day pellet (Innovative Research of America) were implanted 2-3 days prior to MCF7 cell implant. […] Compound A- and/or combination partner-treated mice were dosed orally once daily. Fulvestrant-treated mice were dosed subcutaneously twice per week for 2 weeks followed by once weekly for 2 weeks.
Vehicle for abemaciclib was 1% […] (HEC) in 20 mM HCl pH2. Vehicle for ribociclib was 0.5% methylcellulose. Vehicle for fulvestrant was 10% w/v ethanol, 10% w/v benzyl alcohol, 15% w/v benzyl benzoate, made up to 100% w/v with castor oil. […] Tumor volumes were measured twice per week in efficacy studies and calculated using (width^2×length)/2, where all measurements are in millimeters (mm) and the tumor volume is in mm^3. Body weights were recorded twice per week. […] Tumor growth inhibition (TGI) was calculated as follows, where tumor volume is in mm^3: […]

Data set [1] is described as follows: Clinical Pharmacology Study: safety in healthy volunteers. The following applies: 200 mg, 47 healthy participants.
The conditions of data set [2]: human, in vivo.
A short description of data set [3]: Interconversion of Compound A to Compound B. The format is physicochemical.
A further data set has as its system MCF7 cells. Kind of data set: Live-cell imaging proliferation assay (Incucyte), MCF7. It counts as cell-based. Particulars: for GI50: Homo sapiens, MCF7, 120 h, read-out: approximate GI50; for mean decrease in MCF7 cell growth relative to control: 5 days, Compound A 10 nM. From the text: (§2) FIGS. 1A-1H are graphs showing quantification of the MCF7 and T47D live-cell imaging proliferation assays. […] Each plot is representative of three independent experiments. […] Each plot is representative of three independent experiments, except for the T47D fulvestrant arms in FIGS. 1A and 1C, which are the result of 2 independent experiments). FIGS. 1B, 1D, 1F and 1H show differences in relative MCF7 and T47D cell growth compared to vehicle control at 120-hours of treatment. Graphs show the mean of three independent experiments, except for the T47D fulvestrant arms in FIGS. 1B and 1D, which are the result of 2 independent experiments). Error bars=standard error of the mean (SEM). *p<0.025, **p≤0.008, ***p≤0.0006, ****p<0.0001, ns=not significant (one-way ANOVA test).
(§3) MCF7 or T47D cells were seeded in 6 well plates and treated with the indicated concentrations of compounds. The plate was then placed in the Incucyte® S3 Live-Cell Analysis System and images were acquired every 4 hours for a total of 5 days. Data were analyzed using the Incucyte® Software v2020C which quantified cell surface area coverage as confluence values. Relative growth was calculated for all timepoints for all growth conditions relative to the confluence value observed for the control at 120 hours (FIGS. 1A and 1C). Graphing and statistical analyses were performed using Graphpad Prism (GraphPad Software).
(§4) For fulvestrant and fulvestrant plus abemaciclib, mean decreases in MCF7 cell growth were 48% and 68%, respectively.

Data set [4] is described as follows: Biopharmaceutics Classification System classification. The format is physicochemical.
The subject of a further data set is T47D cells. Kind of data set: Live-cell imaging proliferation assay (Incucyte), T47D. It counts as cell-based. Particulars: Homo sapiens, 120 h; for GI50: read-out: approximate GI50.
Excerpt: as §2, §3, §4

Data set [5] in a line: Exposure of Compound B relative to Compound A (preclinical data).
A further data set concerns the target T1, ER (Homo sapiens, UniProt P03372).
T1 construct: degradation by PROTAC
T1 sequence (P03372 1-595): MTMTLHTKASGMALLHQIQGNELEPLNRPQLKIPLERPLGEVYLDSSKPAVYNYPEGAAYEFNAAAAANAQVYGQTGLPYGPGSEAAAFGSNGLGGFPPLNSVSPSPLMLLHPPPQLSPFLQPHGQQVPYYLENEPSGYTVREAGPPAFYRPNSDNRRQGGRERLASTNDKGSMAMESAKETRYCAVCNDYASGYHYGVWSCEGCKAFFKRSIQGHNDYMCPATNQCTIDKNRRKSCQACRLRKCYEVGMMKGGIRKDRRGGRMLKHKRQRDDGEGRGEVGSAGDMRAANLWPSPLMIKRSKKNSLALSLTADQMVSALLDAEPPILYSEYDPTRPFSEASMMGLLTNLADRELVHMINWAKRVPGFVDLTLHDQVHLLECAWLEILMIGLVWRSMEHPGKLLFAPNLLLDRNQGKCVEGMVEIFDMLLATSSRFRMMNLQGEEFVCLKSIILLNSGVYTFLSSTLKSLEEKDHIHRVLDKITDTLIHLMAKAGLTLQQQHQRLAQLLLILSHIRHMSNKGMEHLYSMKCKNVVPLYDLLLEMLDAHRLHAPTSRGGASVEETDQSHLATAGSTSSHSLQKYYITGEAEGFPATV
The data set can be described thus: ER degradation.

The nature of data set [6]: FIH Study Part C: pharmacokinetics in patients with breast cancer. It counts as in vivo, human. Particulars: preliminary. The procedure:
Additional evaluation will include single- and multiple-dose pharmacokinetics and biochemical activity.
Palbociclib was administered orally once a day at 125 mg/day for 21 days followed by 7 days off treatment for each 28-day cycle according to product labeling and in compliance with its local prescribing information.
Anticancer Drugs. 2018 March; 29 (3): 271280).

The subject of data set [7] is MCF7 orthotopic xenograft. The data set can be described thus: MCF7 orthotopic xenograft model, abemaciclib study. The format is in vivo, NOD/SCID mice. The following applies: 28 days; Compound A 30 mg/kg, abemaciclib 30 mg/kg orally QD, fulvestrant 200 mg/kg SC; FIG. 3A.
Description: Briefly, MCF7 cells were orthotopically implanted into the mammary fat pads of NOD/SCID female mice. 17β-estradiol 0.72 mg 90-day pellet (Innovative Research of America) were implanted 2-3 days prior to MCF7 cell implant. […] Fulvestrant-treated mice were dosed subcutaneously twice per week for 2 weeks followed by once weekly for 2 weeks.
Eight- to ten-week-old female NOD/SCID mice were surgically implanted with a 0.36 mg 90-day release 17β-estradiol pellet subcutaneously. One to two days later each mouse was injected with 5×10^6/200 μL MCF7 cells into one mammary fat pad. […] Fulvestrant (200 mg/kg, subcutaneously; twice per week for 2 weeks followed by once-weekly for 2 weeks) was also evaluated as a single agent and in combination with abemaciclib and ribociclib. […]
Vehicle for abemaciclib was 1% hydroxymethyl cellulose (HEC) in 20 mM HCl pH2. […] Tumor volumes were measured twice per week in efficacy studies and calculated using (width^2×length)/2, where all measurements are in millimeters (mm) and the tumor volume is in mm^3. Body weights were recorded twice per week. […] Tumor growth inhibition (TGI) was calculated as follows, where tumor volume is in mm^3:
The subject of data set [8] is MCF7 orthotopic xenograft. The data set can be described thus: MCF7 orthotopic xenograft model, ribociclib study. The format is in vivo, NOD/SCID mice. Particulars: 28 days; Compound A 30 mg/kg, ribociclib 75 mg/kg orally QD, fulvestrant 200 mg/kg SC; FIG. 3B. The procedure:
Mean tumor volumes are reported ±SEM. Single-day dosing holidays are indicated by small black arrows.
Compounds dosed as single agents or in combination, 10 mice/arm.
as §1
Eight- to ten-week-old female NOD/SCID mice were surgically implanted with a 0.36 mg 90-day release 17β-estradiol pellet subcutaneously. […] Fulvestrant (200 mg/kg, subcutaneously; twice per week for 2 weeks followed by once-weekly for 2 weeks) was also evaluated as a single agent and in combination with abemaciclib and ribociclib. […]
Vehicle for abemaciclib was 1% […] (HEC) in 20 mM HCl pH2. […] Tumor volumes were measured twice per week in efficacy studies and calculated using (width^2×length)/2, where all measurements are in millimeters (mm) and the tumor volume is in mm^3. Body weights were recorded twice per week. […] Tumor growth inhibition (TGI) was calculated as follows, where tumor volume is in mm^3: […]

[9] abbreviates: read-out: mean change in T47D cell growth relative to control.
[10] abbreviates: read-out: mean decrease in T47D cell growth relative to control.
Setting [11] is: with palbociclib, 180 up to 500 mg QD Compound A, Cycle 1 Day 1 and Day 15.
The mark [12] stands for this setting: abemaciclib experiment, fulvestrant 1 nM, abemaciclib 40 nM (approx. GI50).

For the compound `O=C1CC[C@H](N2Cc3cc(N4CCN(CC5CCN(c6ccc([C@@H]7c8ccc(O)cc8CC[C@@H]7c7ccccc7)cc6)CC5)CC4)ccc3C2=O)C(=O)N1` [Compound A, (S)-3-(5-(4-((1-(4-((1R,2S)-6-hydroxy-2-phenyl-1,2,3,4-tetrahydronaphthalen-1-yl)phenyl)piperidin-4-yl)methyl)piperazin-1-yl)-1-oxoisoindolin-2-yl)piperidine-2,6-dione], the “tumor growth inhibition (TGI)” value in the data set on MCF7 xenograft is 105%. In data set [1], the “TRAEs of Grade 2 or higher” value is “no TRAEs of Grade 2 or higher were reported” and the tolerability result is given as “well-tolerated”. Further, the “SAEs, SARs or deaths” value in data set [2] was “No SAEs, SARs or deaths were reported”. The “interconversion to Compound B” value in data set [3] is “can interconvert”. Also, the GI50 in the data set on MCF7 cells was around 10 nM. Further, in data set [4], the “Biopharmaceutics Classification System Class” value is “Class IV”, the “permeability (BCS)” value was “low permeability” and the “solubility (BCS)” value is given as “low solubility”. In addition, the GI50 in the data set on T47D cells is around 10 nM. In addition, the inhibition at 0.01 µM with T47D cells (setting [9]) was 41%. Further, in the data set on T47D cells (setting [10]), the inhibition at 0.01 µM is 42%.
Consider `O=C1CC[C@@H](N2Cc3cc(N4CCN(CC5CCN(c6ccc([C@@H]7c8ccc(O)cc8OC[C@@H]7c7ccccc7)cc6)CC5)CC4)ccc3C2=O)C(=O)N1` [Compound B], for which the “exposure of Compound B compared to Compound A” value in data set [5] is below 26%. In addition, at ER, the “degradation of the ER” value was “does not degrade the ER”. In data set [6] (setting [11]), the “AUCtau, dose dependence” value was “dose-dependent increases” and the “Cmax, dose dependence” value is listed as “dose-dependent increases”.
As to `CCN1CCN(Cc2ccc(Nc3ncc(F)c(-c4cc(F)c5nc(C)n(C(C)C)c5c4)n3)nc2)CC1` [abemaciclib, N-(5-((4-ethylpiperazin-1-yl)methyl)pyridin-2-yl)-5-fluoro-4-(4-fluoro-1-isopropyl-2-methyl-1H-benzo[d]imidazol-6-yl)pyrimidin-2-amine], the “tumor growth inhibition (TGI)” value in data set [7] is given as 50%. Also, the GI50 with MCF7 cells and with T47D cells was around 40 nM in each case. Further, the “mean decrease in MCF7 cell growth relative to control” value with MCF7 cells (setting [12]) turned out to be 49%. Also, the inhibition at 0.04 µM in the data set with T47D cells (setting [10]) is 32%.
In the case of `C[C@]12CC[C@@H]3c4ccc(O)cc4C[C@@H](CCCCCCCCC[S+]([O-])CCCC(F)(F)C(F)(F)F)[C@H]3[C@@H]1CC[C@@H]2O` (stereo partly shown) [fulvestrant], the entries for the “tumor growth inhibition (TGI)” value (in data set [7]; with MCF7 xenograft; in data set [8]) were 42%, 46% and 31%, respectively. For the same compound, the GI50 in the data set on MCF7 cells and in the data set on T47D cells was around 1 nM in each case. Besides, the “mean decrease in MCF7 cell growth relative to control” value with MCF7 cells (setting [12]) is reported as 48%. For the same compound, the inhibition at 0.001 µM with T47D cells (setting [10]) stood at 16%.
In the case of `CC(=O)c1c(C)c2cnc(Nc3ccc(N4CCNCC4)cn3)nc2n(C2CCCC2)c1=O` [palbociclib, 6-acetyl-8-cyclopentyl-5-methyl-2-(5-piperazin-1-yl-pyridin-2-ylamino)-8H-pyrido[2,3-d]pyrimidin-7-one], the “increase in palbociclib AUCtau vs PALOMA-1 and PALOMA-2” value in data set [6] (Cycle 1 Day 15, 125 mg QD palbociclib with 500 mg QD Compound A) was around 34%.
As to `CN(C)C(=O)c1cc2cnc(Nc3ccc(N4CCNCC4)cn3)nc2n1C1CCCC1` [ribociclib, 7-cyclopentyl-N,N-dimethyl-2-[(5-piperazin-1-ylpyridin-2-yl)amino]pyrrolo[2,3-d]pyrimidine-6-carboxamide], the GI50 in the data set on MCF7 cells and with T47D cells was around 40 nM throughout. For the same compound, in the data set on MCF7 cells (ribociclib experiment, ribociclib 40 nM (approx. GI50)), the “mean decrease in MCF7 cell growth relative to control” value was determined as 44%. In addition, the “tumor growth inhibition (TGI)” value in data set [8] is listed as 58%. For the same compound, the inhibition at 0.04 µM in the data set with T47D cells (setting [9]) is 32%.

For orientation: GI50 means the concentration at which growth is held to half of that of the control.

Source of the values: patent US20260335306A1, “DOSAGE REGIMENS OF ESTROGEN RECEPTOR DEGRADERS” (priority 2022, published 2026).
